Test system: human MCF7 model of ER+ breast cancer
Test: ER+ SEMA7A expressing tumors, human MCF7 model
Type: in vivo, mice
Conditions: FIG. 11
Source text: FIGS. 11A-11H represents various graphs and images of tumor analysis and treatment according to various aspects of the disclosure. (A) represents analysis for relapse free survival of breast cancer patients treated with endocrine therapy assessed for SEMA7A levels; (B) MCF7 tumor cell growth in mice treated with endocrine therapy (e.g., Fulvestrant); (C) Lung metastasis of MCF7 in mice from 11B; (D) is a representative image illustrating BCL2 expression in SEMA7A OE cells; (E) MCF7 tumor growth in mice treated with endocrine therapy and a Bcl-2 inhibitor (e.g., Venetoclax) indicated by the arrows; (F) Lung metastasis in mice from […] above; (G) illustrates clonogenic growth of MCF7 EV or SEMA7A OE cells treated with 5 μM SU6656; clonogenic data are normalized to vehicle controls; and (H) represents clonogenic growth of MCF7 EV or SEMA7A OE cells treated with a composition according to various aspects of the disclosure.
In another exemplary method, ER+SEMA7A expressing tumors are resistant to anti-estrogen-based therapy (Fulvestrant), anti-CDK4/6 therapy (Palbociclib), and chemotherapy but are sensitive to inhibition of cell survival pathways. […]

Q: With `C[C@]12CC[C@@H]3c4ccc(O)cc4C[C@@H](CCCCCCCCC[S+]([O-])CCCC(F)(F)C(F)(F)F)[C@H]3[C@@H]1CC[C@@H]2O` (stereo partly shown) [Fulvestrant] as the molecule, how does the “response of ER+SEMA7A expressing tumors to therapy” value read?
A: resistant

Source: patent publication US20240174762A1, “METHODS, COMPOSITIONS AND USES FOR TARGETING SEMA7A IN THE DIAGNOSIS AND TREATMENT OF HEALTH CONDITIONS” (THE REGENTS OF THE UNIVERSITY OF COLORADO, A BODY CORPORATE, priority 2021, published 2024)
